From publication doi:10.1101/2025.09.30.679465v1, “Large-Scale Structure-Based Virtual Screening Identifies Diverse KNa1.1 (KCNT1) Potassium Channel Inhibitors” (biorxiv, 2025)
Positions count from the first letter of the chain named. pIC50: −log10 of the molar value.

Biological target: T1, KNa1.1 WT/Y796H (Homo sapiens, UniProt Q5JUK3, Y796H)
T1 construct: gene KCNT1; full-length WT KNa1.1 and Y796H KNa1.1 subunits joined by self-cleaving T2A linker in pcDNA6
T1 sequence (Q5JUK3 1-1230): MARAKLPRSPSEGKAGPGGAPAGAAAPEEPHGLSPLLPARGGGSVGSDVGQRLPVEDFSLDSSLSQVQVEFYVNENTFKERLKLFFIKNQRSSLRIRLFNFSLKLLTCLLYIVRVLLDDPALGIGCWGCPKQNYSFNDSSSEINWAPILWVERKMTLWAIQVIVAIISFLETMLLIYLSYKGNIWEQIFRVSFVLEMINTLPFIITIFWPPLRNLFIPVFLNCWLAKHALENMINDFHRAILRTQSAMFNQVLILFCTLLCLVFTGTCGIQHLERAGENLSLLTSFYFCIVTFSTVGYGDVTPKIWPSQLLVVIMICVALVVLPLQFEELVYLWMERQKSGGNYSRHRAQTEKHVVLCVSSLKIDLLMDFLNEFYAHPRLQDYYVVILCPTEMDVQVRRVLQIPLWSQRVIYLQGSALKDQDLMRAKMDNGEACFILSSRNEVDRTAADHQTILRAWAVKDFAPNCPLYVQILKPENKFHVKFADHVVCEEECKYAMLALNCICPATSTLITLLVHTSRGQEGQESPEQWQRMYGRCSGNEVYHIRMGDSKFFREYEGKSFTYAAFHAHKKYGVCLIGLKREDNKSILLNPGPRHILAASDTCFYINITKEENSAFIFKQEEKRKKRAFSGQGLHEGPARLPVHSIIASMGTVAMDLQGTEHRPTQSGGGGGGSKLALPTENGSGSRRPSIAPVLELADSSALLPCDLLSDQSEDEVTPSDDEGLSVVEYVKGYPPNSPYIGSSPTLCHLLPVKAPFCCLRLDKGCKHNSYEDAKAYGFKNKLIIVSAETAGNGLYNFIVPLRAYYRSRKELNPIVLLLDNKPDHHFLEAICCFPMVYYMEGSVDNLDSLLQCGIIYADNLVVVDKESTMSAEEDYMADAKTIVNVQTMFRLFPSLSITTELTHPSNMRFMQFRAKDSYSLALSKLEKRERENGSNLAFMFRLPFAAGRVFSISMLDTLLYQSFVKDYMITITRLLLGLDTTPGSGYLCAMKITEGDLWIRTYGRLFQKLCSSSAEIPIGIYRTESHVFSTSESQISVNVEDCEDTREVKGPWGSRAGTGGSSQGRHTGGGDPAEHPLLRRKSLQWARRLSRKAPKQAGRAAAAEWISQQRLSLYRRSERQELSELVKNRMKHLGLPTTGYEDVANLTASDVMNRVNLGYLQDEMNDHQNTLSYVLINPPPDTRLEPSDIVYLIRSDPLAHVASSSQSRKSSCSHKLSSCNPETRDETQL
T1 sequence (Q5JUK3 1-1230 Y796H): T1 sequence (Q5JUK3 1-1230) with Y796H
Assay: thallium flux (Thallos AM), HEK293
Assay type: cell-based
From the text: thallium flux (Thallos AM), HEK293 on KNa1.1 WT/Y796H

pIC50: 5.33
Compound: CC(c1ccccc1)N1CCCN(c2cccc(NC(=O)Nc3cccc(Cl)c3)c2)C1=O (stereo not shown) [compound 1, Cpd1]
